Columns and labels:
[1] = test system: pigweed; assay: Test B pre/postemergence pigweed; assay type: in vivo, Amaranthus retroflexus
How it was run: (§1)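 Response is a visual 0-to-10 score relative to untreated plants, where 0 means no effect and 10 means complete control, taken twelve to sixteen days after application. Treatments went onto soil at planting and onto foliage of 1- to 4-leaf plants, using a surfactant-containing non-phytotoxic solvent.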

[2] = test system: crabgrass; assay: Test B pre/postemergence crabgrass; assay type: in vivo, Digitaria sanguinalis
How it was run: as §1

[3] = test system: velvetleaf; assay: Test B pre/postemergence velvetleaf; assay type: in vivo, Abutilon theophrasti
How it was run: as §1

[4] = test system: giant foxtail; assay: Test B pre/postemergence giant foxtail; assay type: in vivo, Setaria faberii
How it was run: as §1

[5] = test system: bedstraw; assay: Test B pre/postemergence bedstraw; assay type: in vivo, Galium aparine
How it was run: as §1

[6] = test system: morningglory; assay: Test B pre/postemergence morningglory; assay type: in vivo, Ipomoea hederacea
How it was run: as §1

[7] = test system: sugar beet; assay: Test B pre/postemergence sugar beet; assay type: in vivo, Beta vulgaris
How it was run: as §1

[8] = test system: surinam grass; assay: Test B pre/postemergence surinam grass; assay type: in vivo, Brachiaria decumbens
How it was run: as §1

[9] = test system: corn; assay: Test B pre/postemergence corn; assay type: in vivo, Zea mays
How it was run: as §1

[10] = test system: wheat; assay: Test B pre/postemergence wheat; assay type: in vivo, Triticum aestivum
How it was run: as §1

[11] = test system: soybean; assay: Test B pre/postemergence soybean; assay type: in vivo, Glycine max
How it was run: as §1

[12] = test system: wild oat; assay: Test B pre/postemergence wild oat; assay type: in vivo, Avena fatua
How it was run: as §1

[13] = test system: cocklebur; assay: Test B pre/postemergence cocklebur; assay type: in vivo, Xanthium strumarium
How it was run: as §1

[14] = test system: rape; assay: Test B pre/postemergence rape; assay type: in vivo, Brassica napus
How it was run: as §1

[15] = test system: blackgrass; assay: Test B pre/postemergence blackgrass; assay type: in vivo, Alopecurus myosuroides
How it was run: as §1

[16] = test system: purple nutsedge; assay: Test B pre/postemergence purple nutsedge; assay type: in vivo, Cyperus rotundus
How it was run: as §1

[17] = Postemergence, Rate 62 g/ha, scale of 0 to 10, 0 is no effect, 10 is complete control
[18] = Postemergence, Rate 125 g/ha, scale 0 to 10, 0 is no effect, 10 is complete control
[19] = Postemergence, Rate 500 g/ha, scale 0 to 10, 0 is no effect, 10 is complete control
[20] = Preemergence, Rate 62 g/ha, scale 0 to 10 (0 no effect, 10 complete control)
[21] = Preemergence, Rate 125 g/ha, scale 0 to 10, 0 is no effect, 10 is complete control
[22] = Preemergence, Rate 500 g/ha, scale of 0 to 10 where 0 is no effect and 10 is complete control
[23] = Rate 250 g/ha, Postemergence, scale of 0 to 10 where 0 is no effect and 10 is complete control

## CC(C)=CCn1c(=O)on(C(=O)N(c2ccc(Cl)cc2)C(C)C)c1=O [Compound 545]
[1]; [17]
  Redroot pigweed plant response rating: 0
[1]; [18]
  Redroot pigweed plant response rating: 0
[1]; [19]
  Plant response rating, Redroot pigweed: 0
[1]; [20]
  Redroot pigweed plant response rating: 3
[1]; [21]
  Redroot pigweed plant response rating: 8
[1]; Preemergence, Rate 250 g/ha
  Redroot pigweed plant response rating (0 to 10 scale): 9
[1]; [22]
  Redroot pigweed plant response rating: 10
[1]; [23]
  Plant response rating, Redroot pigweed: 0
[2]; [17]
  Crabgrass plant response rating: 0
[2]; [18]
  Crabgrass plant response rating: 2
[2]; [19]
  Plant response rating, Crabgrass: 9
[2]; [20]
  Crabgrass plant response rating: 8
[2]; [21]
  Crabgrass plant response rating: 10
[2]; Preemergence, Rate 250 g/ha
  Crabgrass plant response rating (0 to 10 scale): 10
[2]; [22]
  Crabgrass plant response rating: 10
[2]; [23]
  Plant response rating, Crabgrass: 3
[3]; [17]
  Velvetleaf plant response rating: 0
[3]; [18]
  Velvetleaf plant response rating: 3
[3]; [20]
  Velvetleaf plant response rating: 0
[3]; [21]
  Velvetleaf plant response rating: 0
[3]; Preemergence, Rate 250 g/ha
  Velvetleaf plant response rating (0 to 10 scale): 0
[3]; [22]
  Velvetleaf plant response rating: 0
[3]; [23]
  Plant response rating, Velvetleaf: 6
[4]; [17]
  Giant foxtail plant response rating: 0
[4]; [18]
  Giant foxtail plant response rating: 0
[4]; [19]
  Plant response rating, Giant foxtail: 5
[4]; [20]
  Giant foxtail plant response rating: 10
[4]; [21]
  Giant foxtail plant response rating: 10
[4]; Preemergence, Rate 250 g/ha
  Giant foxtail plant response rating (0 to 10 scale): 10
[4]; [22]
  Giant foxtail plant response rating: 10
[4]; [23]
  Plant response rating, Giant foxtail: 3
[5]; [17]
  Bedstraw plant response rating: 0
[5]; [18]
  Bedstraw plant response rating: 0
[5]; [19]
  Plant response rating, Bedstraw: 7
[5]; [20]
  Bedstraw plant response rating: 0
[5]; [21]
  Bedstraw plant response rating: 0
[5]; Preemergence, Rate 250 g/ha
  Bedstraw plant response rating (0 to 10 scale): 0
[5]; [22]
  Bedstraw plant response rating: 10
[5]; [23]
  Plant response rating, Bedstraw: 2
[6]; [17]
  Morningglory plant response rating: 4
[6]; [18]
  Morningglory plant response rating: 4
[6]; [20]
  Morningglory plant response rating: 0
[6]; [21]
  Morningglory plant response rating: 0
[6]; Preemergence, Rate 250 g/ha
  Morningglory plant response rating (0 to 10 scale): 0
[6]; [22]
  Morningglory plant response rating: 8
[6]; [23]
  Plant response rating, Morningglory: 10
[7]; [17]
  Sugarbeets plant response rating: 0
[7]; [18]
  Sugarbeets plant response rating: 0
[7]; [19]
  Plant response rating, Sugarbeets: 3
[7]; [20]
  Sugarbeets plant response rating: 0
[7]; [21]
  Sugarbeets plant response rating: 0
[7]; Preemergence, Rate 250 g/ha
  Sugarbeets plant response rating (0 to 10 scale): 2
[7]; [22]
  Sugarbeets plant response rating: 6
[7]; [23]
  Plant response rating, Sugarbeets: 0
[8]; [17]
  B. signalgrass plant response rating: 0
[8]; [18]
  B. signalgrass plant response rating: 0
[8]; [19]
  Plant response rating, B. signalgrass: 2
[8]; [20]
  B. signalgrass plant response rating: 0
[8]; [21]
  B. signalgrass plant response rating: 0
[8]; Preemergence, Rate 250 g/ha
  B. signalgrass plant response rating (0 to 10 scale, 0 is no effect, 10 is complete control): 0
[8]; [22]
  B. signalgrass plant response rating: 5
[8]; [23]
  Plant response rating, B. signalgrass: 2
[9]; [17]
  Corn plant response rating: 0
[9]; [18]
  Corn plant response rating: 0
[9]; [19]
  Plant response rating, Corn: 0
[9]; [20]
  Corn plant response rating: 0
[9]; [21]
  Corn plant response rating: 0
[9]; Preemergence, Rate 250 g/ha
  Corn plant response rating (0 to 10 scale): 0
[9]; [22]
  Corn plant response rating: 0
[9]; [23]
  Plant response rating, Corn: 0
[10]; [17]
  Wheat plant response rating: 0
[10]; [18]
  Wheat plant response rating: 0
[10]; [19]
  Plant response rating, Wheat: 0
[10]; [20]
  Wheat plant response rating: 0
[10]; [21]
  Wheat plant response rating: 0
[10]; Preemergence, Rate 250 g/ha
  Wheat plant response rating (0 to 10 scale): 0
[10]; [22]
  Wheat plant response rating: 2
[10]; [23]
  Plant response rating, Wheat: 0
[11]; [17]
  Soybean plant response rating: 1
[11]; [18]
  Soybean plant response rating: 1
[11]; [19]
  Plant response rating, Soybean: 2
[11]; [20]
  Soybean plant response rating: 0
[11]; [21]
  Soybean plant response rating: 0
[11]; Preemergence, Rate 250 g/ha
  Soybean plant response rating (0 to 10 scale): 0
[11]; [22]
  Soybean plant response rating: 0
[11]; [23]
  Plant response rating, Soybean: 2
[12]; [17]
  Wild oats plant response rating: 0
[12]; [18]
  Wild oats plant response rating: 0
[12]; [19]
  Plant response rating, Wild oats: 0
[12]; [20]
  Wild oats plant response rating: 0
[12]; [21]
  Wild oats plant response rating: 0
[12]; Preemergence, Rate 250 g/ha
  Wild oats plant response rating (0 to 10 scale): 2
[12]; [22]
  Wild oats plant response rating: 6
[12]; [23]
  Plant response rating, Wild oats: 0
[13]; [17]
  Cocklebur plant response rating: 0
[13]; [18]
  Cocklebur plant response rating: 3
[13]; [20]
  Cocklebur plant response rating: 0
[13]; [21]
  Cocklebur plant response rating: 0
[13]; Preemergence, Rate 250 g/ha
  Cocklebur plant response rating (0 to 10 scale): 0
[13]; [22]
  Cocklebur plant response rating: 0
[13]; [23]
  Plant response rating, Cocklebur: 8
[14]; [17]
  Rape plant response rating: 0
[14]; [18]
  Rape plant response rating: 0
[14]; [19]
  Plant response rating, Rape: 3
[14]; [20]
  Rape plant response rating: 0
[14]; [21]
  Rape plant response rating: 0
[14]; Preemergence, Rate 250 g/ha
  Rape plant response rating (0 to 10 scale): 0
[14]; [22]
  Rape plant response rating: 2
[14]; [23]
  Plant response rating, Rape: 0
[15]; [17]
  Blackgrass plant response rating: 0
[15]; [18]
  Blackgrass plant response rating: 0
[15]; [19]
  Plant response rating, Blackgrass: 0
[15]; [20]
  Blackgrass plant response rating: 0
[15]; [21]
  Blackgrass plant response rating: 0
[15]; Preemergence, Rate 250 g/ha
  Blackgrass plant response rating (0 to 10 scale): 2
[15]; [22]
  Blackgrass plant response rating: 9
[15]; [23]
  Plant response rating, Blackgrass: 0
[16]; [17]
  Nutsedge plant response rating: 0
[16]; [20]
  Nutsedge plant response rating: 0
[16]; [21]
  Nutsedge plant response rating: 0
[16]; Preemergence, Rate 250 g/ha
  Nutsedge plant response rating (0 to 10 scale): 0
[16]; [22]
  Nutsedge plant response rating: 0

— US6737383B1, “Herbicidal oxadiazolidines” (priority 1999, dated 2004)
